Reference: ChEMBL document CHEMBL5113468, “Design, synthesis, and biological evaluation of novel double-winged galloyl derivatives as HIV-1 RNase H inhibitors” (Eur J Med Chem, 2022)

How the values were obtained:
[1] = target: Human immunodeficiency virus type 1 reverse transcriptase (Human immunodeficiency virus 1) (UniProt Q72547); test: Inhibition of wild-type recombinant HIV-1 group M subtype B BH10 reverse transcriptase RNase-associated RNase H activity expressed in Escherichia coli XL1 blue at 100 uM using 32P-labeled 5'-[…]-3'/5'-[…]-3' RNA/DNA template-primer as substrate preincubated for 5 mins followed by substrate addition and measured after 15 mins by phosphorimaging analysis relative to control; settings: time 20.0 min
[2] = system: Human immunodeficiency virus 2; test: Antiviral activity against HIV2 ROD infected in human MT4 cells assessed as protection against virus-induced cytopathic effect incubated for 5 days by MTT assay; format: functional, organism-based; settings: Human immunodeficiency virus 2, ROD, MT4, 120 h
[3] = Cytotoxicity against human MT4 cells assessed as reduction in cell viability measured after 5 days by MTT assay; format: toxicity, cell-based; settings: time 5 day
[4] = target: Human immunodeficiency virus type 1 reverse transcriptase (Human immunodeficiency virus 1, UniProt Q72547); test: Inhibition of wild-type recombinant HIV-1 group M subtype B BH10 reverse transcriptase RNase-associated RNase H activity expressed in Escherichia coli XL1 blue using 32P-labeled 5'-UUUUUUUUUAGGAUACAUAUGGUUAAAGUAU-3'/5'-ATACTTTAACCATATGTATCC-3' RNA/DNA template-primer as substrate preincubated for 5 mins followed by substrate addition and measured after 15 mins by phosphorimaging analysis
[5] = system: Human immunodeficiency virus 1; test: Antiviral activity against HIV1 3B infected in human MT4 cells assessed as protection against virus-induced cytopathic effect incubated for 5 days by MTT assay; format: functional, organism-based; settings: Human immunodeficiency virus 1, 3B, MT4, 120 h
[6] = Apparent permeability across apical to basolateral side in human Caco-2 cells at 2 uM measured after 2 hrs by LC-MS/MS analysis; format: ADME, cell-based
[7] = target: Human immunodeficiency virus type 1 reverse transcriptase (Human immunodeficiency virus 1) (UniProt Q72547); test: Potency index, ratio of beta-thujaplicinol IC50 to test compound IC50 for inhibition of wild-type recombinant HIV-1 group M subtype B BH10 reverse transcriptase RNase-associated RNase H activity expressed in Escherichia coli XL1 blue

Work on `N#Cc1ccc(S(=O)(=O)N2CCN(C(=O)c3cc(O)c(O)c(O)c3)C(C(=O)Nc3ccccc3)C2)cc1` (centres undefined) yielded an inhibition [1] of 60.6%, an EC50 [2] greater than 130 µM and a CC50 at 120 h [3] of 130 µM. The IC50 [4] was greater than 20 µM and the EC50 [5] was greater than 130 µM.

Work on `Nc1ccc(S(=O)(=O)N2CCN(C(=O)c3cc(O)c(O)c(O)c3)CC2C(=O)NCc2cccc3ccccc23)cc1` (centres undefined) yielded an EC50 [2] greater than 21.6 µM, a CC50 at 120 h [3] of 21.6 µM and an IC50 [4] of 0.22 µM. For the same molecule, the EC50 [5] was greater than 21.6 µM.

`CN(C(=O)C1CN(S(=O)(=O)c2ccc(C#N)cc2)CCN1C(=O)c1cc(O)c(O)c(O)c1)c1ccccc1` (centres undefined) gave an EC50 [2] greater than 113 µM, a CC50 at 120 h [3] of 113 µM and an IC50 [4] of 0.31 µM. The EC50 [5] was greater than 113 µM.

For `COCCc1ccc(OCC(O)CNC(C)C)cc1` (centres undefined) [METOPROLOL], the Papp A→B at 2 h, 2 µM [6] was less than 0.48 ×10⁻⁶ cm/s.

In the case of `CN(C(=O)C1CN(S(=O)(=O)c2ccc(N)cc2)CCN1C(=O)c1cc(O)c(O)c(O)c1)c1ccccc1` (centres undefined), the EC50 [2] is reported as greater than 237 µM, the CC50 at 120 h [3] is reported as 237 µM and the IC50 [4] is reported as 0.99 µM. For the same molecule, the EC50 [5] was greater than 237 µM.

`Nc1ccc(S(=O)(=O)N2CCN(C(=O)c3cc(O)c(O)c(O)c3)C(C(=O)NCc3ccc(-c4ccccc4)cc3)C2)cc1` (centres undefined) gave an inhibition [1] of 47.6%, an EC50 [2] greater than 207 µM and a CC50 at 120 h [3] of 207 µM. The IC50 [4] was greater than 100 µM and the EC50 [5] was greater than 207 µM.

For `COc1ccc(CNC(=O)C2CN(S(=O)(=O)c3ccc(C#N)cc3)CCN2C(=O)c2cc(O)c(O)c(O)c2)cc1` (centres undefined), the inhibition [1] was 81.4%, the EC50 [2] was greater than 21.4 µM and the CC50 at 120 h [3] was 21.4 µM. It also gave an IC50 [4] greater than 10 µM and an EC50 [5] greater than 21.4 µM.

For `Nc1ccc(S(=O)(=O)N2CCN(C(=O)c3cc(O)c(O)c(O)c3)CC2C(=O)NCc2ccc(-c3ccccc3)cc2)cc1` (centres undefined), the EC50 [2] was greater than 18.3 µM, the CC50 at 120 h [3] was 18.3 µM and the IC50 [4] was 0.34 µM. It also gave an EC50 [5] greater than 18.3 µM.

`Nc1ccc(S(=O)(=O)N2CCN(C(=O)c3cc(O)c(O)c(O)c3)CC2C(=O)Nc2ccccc2)cc1` (centres undefined) showed an EC50 [2] greater than 19.1 µM, a CC50 at 120 h [3] of 19.1 µM and an IC50 [4] of 0.56 µM. For the same molecule, the EC50 [5] was greater than 19.1 µM.

For `N#Cc1ccc(S(=O)(=O)N2CCN(C(=O)c3cc(O)c(O)c(O)c3)C(C(=O)NCc3ccc(-c4ccccc4)cc3)C2)cc1` (centres undefined), the EC50 [2] was greater than 7.9 µM, the CC50 at 120 h [3] was 7.9 µM and the IC50 [4] was 0.41 µM. It also gave an EC50 [5] greater than 7.9 µM.

`CC(C)c1ccc(O)c(=O)c(O)c1` [BETA-THUJAPLICINOL] gave an EC50 [2] greater than 2.5 µM and an EC50 [5] greater than 2.5 µM.

With `COc1ccc(CNC(=O)C2CN(S(=O)(=O)c3ccc(N)cc3)CCN2C(=O)c2cc(O)c(O)c(O)c2)cc1` (centres undefined) the EC50 [2] was greater than 21.7 µM, the CC50 at 120 h [3] was 21.7 µM and the IC50 [4] was 0.27 µM. The EC50 [5] was greater than 21.7 µM.

For `Nc1ccn([C@@H]2CS[C@H](CO)O2)c(=O)n1` [LAMIVUDINE], the CC50 at 120 h [3] was greater than 87.3 µM.

In the case of `N#Cc1ccc(S(=O)(=O)N2CCN(C(=O)c3cc(O)c(O)c(O)c3)C(C(=O)NCc3ccco3)C2)cc1` (centres undefined), the inhibition [1] is reported as 57.1%, the EC50 [2] is reported as greater than 108 µM and the CC50 at 120 h [3] is reported as 108 µM. The IC50 [4] was greater than 20 µM and the EC50 [5] was greater than 108 µM.

`Nc1ccc(S(=O)(=O)N2CCN(C(=O)c3cc(O)c(O)c(O)c3)C(C(=O)NCc3ccco3)C2)cc1` (centres undefined) gave an EC50 [2] greater than 24.7 µM, a CC50 at 120 h [3] of 24.7 µM and an IC50 [4] of 0.067 µM. For the same molecule, the EC50 [5] was greater than 24.7 µM, the Ratio IC50 [7] was 30 and the Papp A→B at 2 h, 2 µM [6] was 0.2 ×10⁻⁶ cm/s.

Work on `CN(C(=O)C1CN(C(=O)c2cc(O)c(O)c(O)c2)CCN1S(=O)(=O)c1ccc(N)cc1)c1ccccc1` (centres undefined) yielded an EC50 [2] greater than 135 µM, a CC50 at 120 h [3] of 135 µM and an IC50 [4] of 1.78 µM. For the same molecule, the EC50 [5] was greater than 135 µM.

With `COc1ccc(CNC(=O)C2CN(C(=O)c3cc(O)c(O)c(O)c3)CCN2S(=O)(=O)c2ccc(N)cc2)cc1` (centres undefined) the EC50 [2] was greater than 20.4 µM, the CC50 at 120 h [3] was 20.4 µM and the IC50 [4] was 0.14 µM. The EC50 [5] was greater than 20.4 µM.

For `N#Cc1ccc(S(=O)(=O)N2CCN(C(=O)c3cc(O)c(O)c(O)c3)C(C(=O)NCc3ccc4ccccc4c3)C2)cc1` (centres undefined), the inhibition [1] was 71.9%, the EC50 [2] was greater than 213 µM and the CC50 at 120 h [3] was 213 µM. For the same molecule, the IC50 [4] was greater than 20 µM and the EC50 [5] was greater than 213 µM.

With `Cc1ccnc2c1NC(=O)c1cccnc1N2C1CC1` [NEVIRAPINE] the CC50 at 120 h [3] was greater than 15 µM and the EC50 [5] was 0.17 µM.

Molecule `CC(C)(C)OC(=O)N1CCC2(CCN(C(=O)C3CN(C(=O)c4cc(O)c(O)c(O)c4)CCN3S(=O)(=O)c3ccc(N)cc3)C2)C1` (centres undefined) has an EC50 [2] greater than 42 µM, a CC50 at 120 h [3] of 42 µM and an IC50 [4] of 0.18 µM. It also gave an EC50 [5] greater than 42 µM.

`Nc1ccc(S(=O)(=O)N2CCN(C(=O)c3cc(O)c(O)c(O)c3)C(C(=O)Nc3ccccc3)C2)cc1` (centres undefined) gave an EC50 [2] greater than 50.8 µM, a CC50 at 120 h [3] of 50.8 µM and an IC50 [4] of 0.33 µM. It also gave an EC50 [5] greater than 50.8 µM.

For `Nc1ccc(S(=O)(=O)N2CCN(C(=O)c3cc(O)c(O)c(O)c3)CC2C(=O)NCc2ccco2)cc1` (centres undefined), the EC50 [2] was greater than 25.3 µM, the CC50 at 120 h [3] was 25.3 µM and the IC50 [4] was 0.13 µM. The EC50 [5] was greater than 25.3 µM.

Work on `Nc1ccc(S(=O)(=O)N2CCN(C(=O)c3cc(O)c(O)c(O)c3)C(C(=O)NCc3cccs3)C2)cc1` (centres undefined) yielded an inhibition [1] of 45%, an EC50 [2] greater than 167 µM and a CC50 at 120 h [3] of 167 µM. For the same molecule, the IC50 [4] was greater than 100 µM and the EC50 [5] was greater than 235 µM.

`Nc1ccc(S(=O)(=O)N2CCN(C(=O)c3cc(O)c(O)c(O)c3)CC2C(=O)NCc2cccs2)cc1` (centres undefined) showed an inhibition [1] of 39.6%, an EC50 [2] greater than 235 µM and a CC50 at 120 h [3] of 235 µM. The IC50 [4] was greater than 100 µM and the EC50 [5] was greater than 235 µM.

With `Nc1ccc(S(=O)(=O)N2CCN(C(=O)c3cc(O)c(O)c(O)c3)CC2)cc1` the EC50 [2] was greater than 18 µM, the CC50 at 120 h [3] was 18 µM and the IC50 [4] was 0.72 µM. For the same molecule, the EC50 [5] was greater than 18 µM.
